Experiment [1] relates to Human umbilical vein endothelial cells (HUVEC). The experiment in a line: HUVEC growth, MTT assay. The class given is cell-based. The protocol: These initial observations were extended to human endothelial cells (FIG. 1A) where application of the high affinity agonist, Nle^1-Ang IV (Sardinia et al., 1994; Wright et al., 1999), produces a dose-dependent increase in growth. Human umbilical vein endothelial cells (HUVEC) were grown in EGM (Clonetics) and 10% calf serum for four days in the absence (control) or presence of 10^−8 M, 10^−10 M, or 10^−12 M Nle^1-Ang IV. Cell proliferation was estimated by monitoring mitochondrial activity with the redox-sensitive substrate 3-[4,5-Dimethylthiazol-2-yl]-2,5-diphenyltetrazolium bromide (MTT) (Carmicheal et al., 1987).
(§1) Most relevant for anti-angiogenic cancer treatment is the ability of AT4 antagonists to inhibit endothelial cell growth in culture. Attenuated growth has been observed with both CVECs and with HUVECs (FIG. 1B). After four days of treatment with 10^−10 M Nle^1, Leu^3-Ψ(CH2—NH2)^3-4-Ang IV (NORLEUAL), a potent AT4 receptor antagonist (Kramar et al., 2001), growth of CVECs was reduced to 25% of control (Mean±SEM; n=8; p<.001). […] Cell proliferation was again estimated using the MTT assay.

Experiment [2] concerns bovine coronary venular endothelial cells (CVEC). The experiment in a line: CVEC growth, MTT assay. Conditions: 10^-10 M, four days of treatment. The class given is cell-based.
Description: as §1
In general terms: Tetrazolium dyes change colour on reduction, which living cells bring about.

The next experiment relates to Human dermal fibroblasts. The experiment in a line: Net deposition of extracellular matrix protein, anti-fibronectin stain. The format is cell-based. The note with it: 10^-12 M, 3 days. On the procedure: (§2) Human dermal fibroblasts and C6 glioma cells (astrocyte tumor) were treated with 10^−12 M NORLEUAL for 3 days. Cells were stripped with 0.25 % Triton X-100 for 10 minutes and stained with either Coomassie blue (gliomas) or anti-fibronectin (fibroblasts). Stained dots remaining after treatment are nuclei. Although the mechanism responsible for the lose of ECM proteins has yet to be fully elucidated, a contributing factor could be AT4 receptor-dependent alterations in the expression of matrix metalloproteinases. Application of AT4 receptor ligands to rabbit cardiac fibroblasts initiated marked changes in the expression of various matrix metalloproteinases (MMPs) (FIG. 3). Conditioned media from cardiac fibroblasts treated with various AT4 receptor ligands for 12 hours was loaded and run on a 10% SDS-polyacrylamide gel containing the 1% gelatin, an MMP substrate. After renaturation and activation of MMPs, the gel was incubated at 37° C. for 24 hours to allow for the degradation of gelatin at sites within the gel where MMPs reside. These sites are seen as unstained lytic bands on a background of stained and undegraded gelatin. Lane one is control media from cells with no exposure to AT4 receptor ligands. Lanes 2-4 contained media from cells treated with Nle^1-Ang IV, a putative AT4 receptor agonist, at concentrations of 1 nM, 10 nM, and 100 nM respectively. […]

In a further experiment the test system is C6 glioma cells. The experiment in a line: Net deposition of extracellular matrix protein, Coomassie blue stain. Conditions: 10^-12 M, 3 days. The class given is cell-based. On the procedure:
as §2

In a further experiment the test system is HUVECs. Described as above. The note with it: 10^-12 M, 3 days. The format is cell-based, human. An excerpt: HUVECs and the mouse breast cancer cell line, +SA-WAZ-2T was exposed to the AT4 receptor antagonist NORLEUAL at 10^−12 M for 3 days. Cells were then stripped with 0.25% Triton X-100 and stained with Coomassie blue to visualize total ECM protein. Without an ECM platform endothelial cells fail to migrate and are unable to stabilize new blood vessels.

Another experiment deals with Rat aortic rings. Nature of the experiment: Ex vivo rat aortic ring angiogenesis assay. Conditions: 3 days in basal medium with varying concentrations; p<0.02 for 10^-6 M. On the procedure:
(§3) This prediction has been borne out in studies examining the anti-angiogenic activity of the AT4 receptor antagonist, NORLEUAL, using an ex vivo aortic ring model (FIG. 5) and an in vivo disc angiogenesis assay system in rats (FIG. 6). The data shown in FIG. 5 illustrate the dramatic ability of an AT4 receptor antagonist to inhibit neovascular growth. Rat aortic rings were incubated for 24 hours in a growth factor rich medium (EGM-2) followed by 3 days of incubation in a basal medium (control) or basal media with varying concentrations of NORLEUAL. The data shown in FIG. 5A compare an untreated control ring and a ring treated with 10^−6 M NORLEUAL. […] Disks (1 cm diameter) composed of surgical sponge sandwiched between impermeable membranes were implanted subcutaneously in the backs of rats. In the center of the disks was a pellet containing the test material. The disks were removed 10 days after implantation, paraffin sectioned, stained with Coomassie blue, and analyzed by quantitative image analysis methods to determine the vascularized area. […] Data from discs containing no drug (control), an AT4 receptor agonist (Cpnd 1), or an AT4 receptor antagonist (Cpnds 2-4). Cmpd 2 is NORLEUAL. Each disc contained 10 micrograms of drug. Data is presented as the percent of the total disc area that is vascularized (Mean±SEM; n=8).

The test system of experiment [3] is +SA-WAZ-2T mouse breast cancer cells. Nature of the experiment: Primary mammary tumor growth and vascularization with slow-release pellet. The format is in vivo. Conditions: mice. On the procedure: To test this prediction mice were implanted with […]+SA-WAZ-2T mouse breast cancer cells (a highly aggressive and metastatic cell line) (Danielson et al., 1980) directly into the mammary gland in the presence or absence of a slow-release pellet containing the AT4 antagonist, NORLEUAL at various concentrations (FIG. 7; FIG. 14[color version]). Mouse mammary glands were injected with 5×10^5 cells. […] Tumors were removed and weighed at various time points. Data shown represents one of three experiments that yielded identical results. […] Arrows indicate large blood vessels in the control tumor. […] The highest dose examined inhibited growth more than 97%. Equally dramatic as the reduced size of the tumors was their lack of vascularization. […] Tumors were harvested after 5 weeks of drug application and stained for Factor VIII. […] The quantitative data shown in FIG. 8B indicates the number of visible blood vessels in an average high power field. Data are mean+/−SEM, n=6.

In experiment [4] the test system is murine breast cancer cells. The experiment in a line: Lung metastasis after tail vein injection of breast cancer cells. The format is in vivo, mice. Conditions: Elvax pellets with 0.3 mg bilaterally. From the text:
In addition to inhibiting primary tumor growth, AT4 receptor antagonists are also effective at preventing the growth of lung metastases (as assessed by total lung weight and the presence of metastatic tumor nodules) in mice that have had breast cancer cells injected via the tail vein (FIG. 9). In these experiments the drug was applied using Elvax slow-release pellets that were implanted into the gluteus maximus muscle coincident with the injection of tumor cells into the tail vein. Mice were injected with 5×10^5 murine breast cancer cells and bilaterally implanted with Elvax pellets containing 0.3 mg of NORLEUAL. Lungs were harvested 7 weeks after tumor cell injection and weighed. […] In order to compare just the added lung weight due to tumor infiltration, tumor burden was calculated by subtracting the mean lung weight of wild type untreated controls from the weight of lungs from experimental groups. The mean lung weight of the untreated tumor controls was normalized to 100. Typically, the lung weights of cancer injected, non-treated mice were 50% greater than non-injected controls and treated mice. Spleen weight, another indication of tumor burden, was also normal in treated mice.

The test system of experiment [5] is MDA-MB-231 human breast cancer cells. The experiment in a line: MDA-MB-231 growth, MTT assay. The class given is cell-based. The note with it: 10^-12 M, four days in culture. An excerpt: Because of the marked effectiveness of AT4 receptor antagonists to inhibit the growth and metastasis of breast cancer in vivo, and the generally disappointing activity of anti-angiogenic molecules seen in clinical trials (Kerbel and Folkman, 2002), we decided to ascertain whether these drugs might have a direct effect on tumor cells as well as inhibiting angiogenesis. The growth of MDA-MB-23 1 cells, an aggressive estrogen-independent human cell line was inhibited by all concentrations that were examined (FIG. 10). Growth was assessed using the mitochondrial activity dye MTT after four days in culture. Growth was reduced to less than 25% of control by a concentration of NORLEUAL of 10^−12 M (Mean+/−SEM; n=6). […] The unusual reversed dose-response curve seen with the MDA-MB-231 cells may represent differential effects on multiple receptor subtypes with varied ligand affinities. […] The ability of AT4 receptor antagonists to inhibit both the angiogenic process as well as the proliferation of human cancer cells makes them unique among anti-cancer agents and provides a plausible explanation for their dramatic ability to inhibit tumor growth and metastasis.

Experiment [6] relates to angiogenesis into subcutaneously implanted disc. The experiment in a line: In vivo disc angiogenesis assay. The note with it: rat, 10 micrograms of drug per disc, 10 days after implantation. On the procedure:
as §3

Experiment [7] deals with bovine coronary venular endothelial cells (CVEC). Conditions: cultured CVEC (Hall et al., 1995); cited from earlier work.

In the case of “Nle^1, Leu^3-Ψ(CH2—NH2)^3-4-Ang IV [NORLEUAL]”, in experiment [1] (10^-6 M), the “growth of HUVECs, largest decrease” value turned out to be 39 % control. In addition, the “growth of CVECs” value in [2] is given as 25 % of control. The “deposited ECM” value with Human dermal fibroblasts and in the experiment on C6 glioma cells was “near total loss of deposited ECM” throughout. In addition, in the experiment on HUVECs, the “density of endothelial-associated ECM” value was “dramatic reduction in the density of the endothelial-associated ECM”. The “vessel growth in aortic rings” value in the experiment on Rat aortic rings is “inhibition of vessel growth”. Besides, in experiment [3] (highest dose examined, Elvax pellet in mammary gland), the “inhibition of primary tumor growth” value was “more than 97%”. In addition, in experiment [3] (tumors harvested after 5 weeks of drug application), the “tumor vascularization, Factor VIII stained sections” value is given as “nearly avascular”. In addition, the lung metastases entry in experiment [4] (mice, lungs harvested at 7 weeks) was “no gross or microscopic indication of metastases”. In addition, the “spleen weight, indication of tumor burden” value in experiment [4] (treated mice) is given as “normal”. In [5], the “growth of MDA-MB-231 cells” value is “less than 25 % of control”.
Take Nle^1-Ang IV: the “maximum observed increase in endothelial cell proliferation” value in [1] (HUVEC, four days, 10^-8, 10^-10 or 10^-12 M) is 330 % of control levels. Moreover, the “angiogenesis, percent of total disc area vascularized” value in experiment [6] is “trend toward enhancing angiogenesis”. The “rate of 3H-thymidine incorporation” value in experiment [7] was “augment the rate of ^3H-thymidine incorporation”.

The record behind these values is patent publication US7118747B2, “AT4 receptor ligands as angiogenic, anti-angiogenic, and anti-tumor agents” (Pacific Northwest Biotechnology Inc., priority 2003, dated 2006).
